Experiments:
Type in all cases: in vivo
Poa annua = experiment: greenhouse post-emergence treatment, POAAN; settings: Poa annua, 480 h, read-out: % activity
Procedure: (§1) The culture containers used were plastic pots containing loamy sand with approximately 3.0% of humus as substrate. The seeds of the test plants were sown separately for each species.
(§2) For the post-emergence treatment, the test plants were grown to a plant height of from 3 to 15 cm, depending on the plant habit, and only then treated with the active compounds which had been suspended or emulsified in water. To this end, the test plants were either sown directly, and grown in the same containers, or they were first grown separately as seedlings and transplanted into the test containers a few days prior to treatment.
(§3) Depending on the species, the plants were kept at 10-25° C. and 20-35° C., respectively.
(§4) The test period extended over 2 to 4 weeks. During this time, the plants were tended and their response to the individual treatments was evaluated.
(§5) Evaluation was carried out using a scale from 0 to 100. 100 means no emergence of the plants, or complete destruction of at least the above-ground parts, and 0 means no damage or normal course of growth. A good herbicidal activity is given at values of at least 70, and very good herbicidal activity is given at values of at least 85.
(§6) The respective stated components A and B, and if appropriate, C were formulated as a 10% by weight strength emulsion concentrate and, with addition of the amount of solvent system, introduced into the spray liquor used for applying the active compound. In the examples, the solvent used was water.
(§7) In the examples below, using the method of S. R. Colby (1967) “Calculating synergistic and antagonistic responses of herbicide combinations”, Weeds 15, p. 22ff., the value E, which is expected if the activity of the individual active compounds is only additive, was calculated. E=X+Y−(X·Y/100) where X=effect in percent using herbicide A at an application rate a; • Y=effect in percent using herbicide B at application rate b; • E=expected effect (in %) of herbicide A+herbicide B at application rates a+b.

Alopecurus myosuroides = experiment: greenhouse post-emergence treatment, ALOMY; settings: Alopecurus myosuroides, 480 h, read-out: % activity
Procedure: as §1
To this end, the test plants were either sown directly, and grown in the same containers, or they were first grown separately as seedlings and transplanted into the test containers a few days prior to treatment.
as §3, §4, §5
In the examples, the solvent used was water.
In the examples below, using the method of S. R. Colby (1967) “Calculating synergistic and antagonistic responses of herbicide combinations”, Weeds 15, p. […] E=X+Y−(X·Y/100) where X=effect in percent using herbicide A at an application rate a; • Y=effect in percent using herbicide B at application rate b; • E=expected effect (in %) of herbicide A+herbicide B at application rates a+b.

Papaver rhoeas = experiment: greenhouse post-emergence treatment, PAPRH; settings: Papaver rhoeas, 480 h, 31.25 gai/ha (EC 235 g/l), 20 DAT, PAPRH, Table X4, read-out: % activity, solo application
Procedure: as §1, §2, §3, §4, §5, §6, §7

Avena fatua = experiment: greenhouse post-emergence treatment, AVEFA; settings: Avena fatua, 480 h, 20 DAT, AVEFA, Table X4, read-out: % activity, solo application
Summary of the method: (§8)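 Seeds sown per species in loamy sand substrate (about 3.0% humus); some raised separately and transplanted shortly before treatment. Treatments applied in water post-emergence, plants held at 10-25° C. or 20-35° C. by species, then scored after 2 to 4 weeks, where 100 means total kill and 0 no damage.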

Matricaria chamomilla = experiment: greenhouse post-emergence treatment, MATCH; settings: Matricaria chamomilla, 480 h, 31.25 gai/ha (EC 235 g/l), 20 DAT, MATCH, Table X4, read-out: % activity, solo application
Summary of the method: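 Foliar application to greenhouse-grown plants 3–15 cm tall in humus-containing loamy sand; response assessed on a 0–100 scale after 2–4 weeks, with Colby's E=X+Y−(X·Y/100) as the additive expectation.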

Lolium multiflorum = experiment: greenhouse post-emergence treatment, LOLMU; settings: Lolium multiflorum, 480 h
Summary of the method: as §8

Setaria viridis = experiment: greenhouse post-emergence treatment, SETVI; settings: Setaria viridis, 480 h, 20 DAT, SETVI, Table X4, read-out: % activity, solo application
Summary of the method: as §8

Galium aparine = experiment: greenhouse post-emergence treatment, GALAP; settings: Galium aparine, 480 h
Procedure: as §1, §2, §3, §4, §5, §6, §7

Stellaria media = experiment: greenhouse post-emergence treatment, STEME; settings: Stellaria media, 480 h, read-out: % activity
Procedure: as §1, §2, §3, §4, §5, §6, §7

Digitaria sanguinalis = experiment: greenhouse post-emergence treatment, DIGSA; settings: Digitaria sanguinalis, 480 h
Summary of the method: as §8

Bromus sterilis = experiment: greenhouse post-emergence treatment, BROST; settings: Bromus sterilis, 480 h, read-out: % activity
Summary of the method: as §8

Brachiaria decumbens = experiment: greenhouse post-emergence treatment, BRADC; settings: Urochloa decumbens, 480 h, read-out: % activity
Procedure: as §1, §2, §3, §4, §5, §6, §7

Apera spica-venti = experiment: greenhouse post-emergence treatment, APESV; settings: APESV, bromoxynil solo 250 gai/ha, 20 DAT
Procedure: as §1, §2, §3, §4, §5, §6, §7

Polygonum aviculare = experiment: greenhouse post-emergence treatment, POLAV; settings: Polygonum aviculare, 480 h, 20 DAT, POLAV, Table X4, read-out: % activity, solo application
Procedure: as §1, §2, §3, §4, §5, §6, §7

N#Cc1cc(Br)c(O)c(Br)c1 [Bromoxynil, bromoxynil]
0%: pest or weed control at 31.25 g/ha (Poa annua) | pest or weed control at 62.5 g/ha (Poa annua) | pest or weed control at 125 g/ha (Poa annua) | pest or weed control at 250 g/ha (Poa annua) | pest or weed control at 31.25 g/ha (Alopecurus myosuroides) | pest or weed control at 62.5 g/ha (Alopecurus myosuroides) | pest or weed control at 125 g/ha (Alopecurus myosuroides) | inhibition at 31.25 g/ha (Avena fatua; 31.25 gai/ha (EC 235 g/l)) | inhibition at 125 g/ha (Avena fatua; 125 gai/ha (EC 235 g/l)) | inhibition at 31.25 g/ha (Lolium multiflorum; 31.25 gai/ha (EC 235 g/l), 20 DAT, LOLMU, Table X4, read-out: % activity, solo application) | inhibition at 62.5 g/ha (Lolium multiflorum; 62.5 gai/ha (EC 235 g/l), 20 DAT, LOLMU, Table X4, read-out: % activity, solo application) | inhibition at 125 g/ha (Lolium multiflorum; 125 gai/ha (EC 235 g/l), 20 DAT, LOLMU, Table X4, read-out: % activity, solo application) | inhibition at 250 g/ha (Lolium multiflorum; 250 gai/ha (EC 235 g/l), 20 DAT, LOLMU, Table X4, read-out: % activity, solo application) | pest or weed control at 31.25 g/ha (Lolium multiflorum; read-out: % activity) | pest or weed control at 62.5 g/ha (Lolium multiflorum; read-out: % activity) | pest or weed control at 125 g/ha (Lolium multiflorum; read-out: % activity) | pest or weed control at 250 g/ha (Lolium multiflorum; read-out: % activity) | inhibition at 31.25 g/ha (Setaria viridis; 31.25 gai/ha (EC 235 g/l)) | inhibition at 250 g/ha (Setaria viridis; 250 gai/ha (EC 235 g/l)) | inhibition at 31.25 g/ha (Digitaria sanguinalis; 31.25 gai/ha (EC 235 g/l), 20 DAT, DIGSA, Table X4, read-out: % activity, solo application) | inhibition at 62.5 g/ha (Digitaria sanguinalis; 62.5 gai/ha (EC 235 g/l), 20 DAT, DIGSA, Table X4, read-out: % activity, solo application) | inhibition at 125 g/ha (Digitaria sanguinalis; 125 gai/ha (EC 235 g/l), 20 DAT, DIGSA, Table X4, read-out: % activity, solo application) | inhibition at 250 g/ha (Digitaria sanguinalis; 250 gai/ha (EC 235 g/l), 20 DAT, DIGSA, Table X4, read-out: % activity, solo application) | pest or weed control at 31.25 g/ha (Digitaria sanguinalis; read-out: % activity) | pest or weed control at 62.5 g/ha (Digitaria sanguinalis; read-out: % activity) | pest or weed control at 125 g/ha (Digitaria sanguinalis; read-out: % activity) | pest or weed control at 250 g/ha (Digitaria sanguinalis; read-out: % activity) | pest or weed control at 31.25 g/ha (Bromus sterilis) | pest or weed control at 62.5 g/ha (Bromus sterilis) | pest or weed control at 125 g/ha (Bromus sterilis) | pest or weed control at 250 g/ha (Bromus sterilis) | pest or weed control at 31.25 g/ha (Brachiaria decumbens) | pest or weed control at 62.5 g/ha (Brachiaria decumbens) | % activity (Apera spica-venti)
30%: pest or weed control at 31.25 g/ha (Stellaria media)
60%: pest or weed control at 125 g/ha (Stellaria media)
10%: pest or weed control at 250 g/ha (Alopecurus myosuroides) | pest or weed control at 125 g/ha (Brachiaria decumbens)
55%: inhibition at 31.25 g/ha (Matricaria chamomilla)
80%: inhibition at 125 g/ha (Galium aparine; 125 gai/ha (EC 235 g/l), 20 DAT, GALAP, Table X4, read-out: % activity, solo application) | pest or weed control at 125 g/ha (Galium aparine; read-out: % activity)
65%: inhibition at 62.5 g/ha (Galium aparine; 62.5 gai/ha (EC 235 g/l), 20 DAT, GALAP, Table X4, read-out: % activity, solo application) | pest or weed control at 31.25 g/ha (Galium aparine; read-out: % activity) | pest or weed control at 62.5 g/ha (Galium aparine; read-out: % activity) | inhibition at 31.25 g/ha (Polygonum aviculare; 31.25 gai/ha (EC 235 g/l)) | inhibition at 62.5 g/ha (Polygonum aviculare; 62.5 gai/ha (EC 235 g/l)) | inhibition at 125 g/ha (Polygonum aviculare; 125 gai/ha (EC 235 g/l))
50%: pest or weed control at 62.5 g/ha (Stellaria media)
40%: inhibition at 31.25 g/ha (Papaver rhoeas)

Source: patent publication US10966426B2, “Herbicidal compositions comprising phenylpyrimidines” (BASF SE, priority 2016, dated 2021)
